Laboratory results reported in US8299068B2, “Therapeutically active cyclopentanes” (Allergan, Inc., priority 2010, dated 2012).

Assays:
EP4 [1] = molecular target: T1, EP4 (Homo sapiens, UniProt P35408); experiment: EP4 binding (Ki)
Excerpt: (§1) U.S. Pat. No. 7,427,685 incorporated by reference herein, describes the methods used to obtain the in vitro data in Table 2 below.

EP2 [2] = molecular target: T2, EP2 (Homo sapiens, UniProt P43116); experiment: EP2 Ca2+ signal functional assay; type: cell-based
Excerpt: as §1

EP2 [3] = molecular target: T2, EP2; experiment: EP2 cAMP functional assay; type: cell-based
Excerpt: as §1

DP = molecular target: T3, DP (Homo sapiens, UniProt Q13258); experiment: Other receptors Ca2+ functional assay, DP; type: cell-based
T3 sequence (Q13258 1-359): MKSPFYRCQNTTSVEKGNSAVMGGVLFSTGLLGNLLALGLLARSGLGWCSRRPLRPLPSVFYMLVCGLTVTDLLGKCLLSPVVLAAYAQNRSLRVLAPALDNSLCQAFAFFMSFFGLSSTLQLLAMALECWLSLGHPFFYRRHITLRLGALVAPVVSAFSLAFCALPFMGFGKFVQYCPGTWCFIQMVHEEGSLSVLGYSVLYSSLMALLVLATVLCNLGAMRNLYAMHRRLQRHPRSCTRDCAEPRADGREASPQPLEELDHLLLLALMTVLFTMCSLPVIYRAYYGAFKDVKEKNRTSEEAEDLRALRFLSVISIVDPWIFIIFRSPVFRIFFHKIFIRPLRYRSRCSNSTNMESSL
Excerpt: as §1

EP4 [4] = molecular target: T1, EP4; experiment: EP4 Ca2+ signal functional assay; type: cell-based
Excerpt: as §1

EP2 [5] = molecular target: T2, EP2; experiment: EP2 binding (Ki)
Excerpt: as §1

EP3 = molecular target: T4, EP3 (Homo sapiens, UniProt P43115); experiment: Other receptors Ca2+ functional assay, EP3; type: cell-based
T4 sequence (P43115 1-390): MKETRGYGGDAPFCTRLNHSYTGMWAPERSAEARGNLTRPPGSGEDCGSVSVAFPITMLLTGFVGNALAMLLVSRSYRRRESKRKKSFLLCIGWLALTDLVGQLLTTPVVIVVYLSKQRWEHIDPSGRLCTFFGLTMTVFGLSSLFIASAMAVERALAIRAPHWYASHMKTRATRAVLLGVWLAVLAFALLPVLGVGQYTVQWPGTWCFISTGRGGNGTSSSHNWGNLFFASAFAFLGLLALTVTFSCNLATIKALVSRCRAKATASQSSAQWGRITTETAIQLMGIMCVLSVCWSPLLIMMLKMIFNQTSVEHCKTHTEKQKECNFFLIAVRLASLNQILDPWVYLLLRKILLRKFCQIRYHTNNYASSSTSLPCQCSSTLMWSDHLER
Excerpt: as §1

T2 sequence (P43116 whole entry): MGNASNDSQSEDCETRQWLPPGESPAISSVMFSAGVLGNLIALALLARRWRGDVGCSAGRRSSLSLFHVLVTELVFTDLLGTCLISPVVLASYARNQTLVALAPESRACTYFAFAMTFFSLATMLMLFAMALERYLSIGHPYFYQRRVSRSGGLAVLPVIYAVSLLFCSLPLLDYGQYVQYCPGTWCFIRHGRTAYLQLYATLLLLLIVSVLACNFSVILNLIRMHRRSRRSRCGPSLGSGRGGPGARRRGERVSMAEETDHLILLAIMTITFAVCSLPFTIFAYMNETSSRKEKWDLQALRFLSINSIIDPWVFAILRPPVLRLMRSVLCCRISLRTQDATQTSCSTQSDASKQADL
T1 sequence (P35408 whole entry): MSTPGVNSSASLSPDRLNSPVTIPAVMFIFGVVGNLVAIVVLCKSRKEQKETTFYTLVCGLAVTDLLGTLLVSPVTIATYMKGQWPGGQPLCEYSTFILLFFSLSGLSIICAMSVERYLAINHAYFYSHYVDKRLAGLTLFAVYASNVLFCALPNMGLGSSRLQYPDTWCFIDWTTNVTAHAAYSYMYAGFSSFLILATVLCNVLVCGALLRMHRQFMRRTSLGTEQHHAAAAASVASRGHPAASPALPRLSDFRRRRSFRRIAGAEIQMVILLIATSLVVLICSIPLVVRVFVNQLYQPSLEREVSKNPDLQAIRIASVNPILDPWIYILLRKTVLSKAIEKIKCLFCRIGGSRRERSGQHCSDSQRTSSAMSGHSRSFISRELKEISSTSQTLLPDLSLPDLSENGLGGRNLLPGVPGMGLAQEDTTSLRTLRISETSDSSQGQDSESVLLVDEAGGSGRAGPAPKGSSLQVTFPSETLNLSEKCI

Structure (SMILES): O=C(O)c1ccc(CCC[C@@H]2[C@@H](/C=C/C3CCCC3)[C@H](O)C[C@H]2Cl)s1 [Entry 2]
- Ki (EP4 [1]): 2740 nM
- EC50 (EP2 [2]): 3 nM
- EC50 (EP2 [3]): 0.9 nM
- EC50 (DP): 191 nM
- EC50 (EP4 [4]): 1.35 µM
- Ki (EP2 [5]): 10 nM

Structure (SMILES): O=C(O)c1ccc(CCC[C@@H]2[C@@H](CCC3CCCCC3)[C@H](O)C[C@H]2Cl)s1 [Entry 3]
- Ki (EP4 [1]): 2150 nM
- EC50 (EP2 [2]): 12 nM
- EC50 (EP3): 9050 nM
- EC50 (EP2 [3]): 0.2 nM
- EC50 (DP): 548 nM
- EC50 (EP4 [4]): 6.64 µM
- Ki (EP2 [5]): 0.8 nM

Structure (SMILES): O=C(O)c1ccc(CCC[C@@H]2[C@@H](/C=C/C3CCCCC3)[C@H](O)C[C@H]2Cl)s1 [Entry 4]
- Ki (EP4 [1]): 2710 nM
- EC50 (EP2 [2]): 7 nM
- EC50 (EP3): 5220 nM
- EC50 (EP2 [3]): 0.5 nM
- EC50 (DP): 2160 nM
- EC50 (EP4 [4]): 3.32 µM
- Ki (EP2 [5]): 4 nM

Structure (SMILES): CCCCCC1(CC[C@@H]2[C@@H](CCCc3ccc(C(=O)O)s3)[C@H](Cl)C[C@H]2O)CCCCC1 [Entry 5]
- Ki (EP4 [1]): 5060 nM
- EC50 (EP2 [2]): 2410 nM
- EC50 (EP2 [3]): 152 nM
- EC50 (EP4 [4]): 9.33 µM
- Ki (EP2 [5]): 1040 nM

Structure (SMILES): O=C(O)c1ccc(CCC[C@@H]2[C@@H](CCC3CCCC3)[C@H](O)C[C@H]2Cl)s1 [compound 1]
- Ki (EP4 [1]): 2620 nM
- EC50 (EP2 [2]): 4 nM
- EC50 (EP2 [3]): 0.6 nM
- EC50 (DP): 259 nM
- EC50 (EP4 [4]): 3.07 µM
- Ki (EP2 [5]): 9 nM
